Reference: patent US20240279215A1 (Cytokinetics, Incorporated, priority 2022, published 2024)

Biological target: human NAMPT (Homo sapiens (Human), UniProt P43490)
Assay: NMN fluorescence biochemical assay (human recombinant NAMPT enzyme assay)
Summary of the method: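 Activation of recombinant human NAMPT (6 nM) was tested with 2.5 mM ATP, 20 μM PRPP and 150 μM nicotinamide in 50 mM HEPES pH 7.2 for 60 min at ambient temperature. NMN was derivatized with acetophenone/KOH/formic acid and read by fluorescence (355/460 nm) after 40 min.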

human NAMPT, sequence (P43490 whole entry): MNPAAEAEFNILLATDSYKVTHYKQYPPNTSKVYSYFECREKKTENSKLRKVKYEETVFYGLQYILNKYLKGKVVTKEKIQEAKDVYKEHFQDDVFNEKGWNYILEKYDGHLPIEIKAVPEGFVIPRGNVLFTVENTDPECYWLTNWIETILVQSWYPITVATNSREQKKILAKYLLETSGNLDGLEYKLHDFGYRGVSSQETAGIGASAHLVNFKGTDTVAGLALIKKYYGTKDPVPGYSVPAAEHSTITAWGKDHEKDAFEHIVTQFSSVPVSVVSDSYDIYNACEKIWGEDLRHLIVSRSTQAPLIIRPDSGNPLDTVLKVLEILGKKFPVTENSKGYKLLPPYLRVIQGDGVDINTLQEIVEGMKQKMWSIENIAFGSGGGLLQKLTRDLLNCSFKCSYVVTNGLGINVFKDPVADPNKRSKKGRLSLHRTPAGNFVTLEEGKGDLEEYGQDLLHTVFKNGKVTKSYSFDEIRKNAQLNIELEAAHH

`CN1CCN(C(=O)Cc2ccc(NC(=O)OCc3ccc(Cl)cc3)cc2)C2CC21` (stereo not shown) [Compound 178, 4-chlorobenzyl (4-(2-(5-methyl-2,5-diazabicyclo[4.1.0]heptan-2-yl)-2-oxoethyl)phenyl)carbamate] was tested, and the “AC1.4 Human” value was 1.50 µM and the EC50 was 14.7 µM.

In the case of `CC1(C(=O)NCc2ccc(NC(=O)OCc3ccc(Cl)cc3)cc2)COC1` [Compound 179, (4-chlorophenyl)methyl N-(4-{[(3-methyloxetan-3-yl)formamido]methyl}phenyl)carbamate], the “AC1.4 Human” value is reported as 1.50 µM and the EC50 is reported as 22.4 µM.

With `O=C(Nc1ccc(CN2CC3CC3C2=O)cc1)OCc1ccc(Cl)cc1` (stereo not shown) [Compound 180, (4-chlorophenyl)methyl N-[4-({2-oxo-3-azabicyclo[3.1.0]hexan-3-yl}methyl)phenyl]carbamate] the “AC1.4 Human” value was 1.52 µM and the EC50 was 15.1 µM.

With `CC(C)n1nccc1C(=O)N[C@@H](C)c1ccc(NC(=O)OCc2ccc(Cl)cc2)cc1` [Compound 181, (4-chlorophenyl)methyl N-{4-[(1S)-1-[(2-isopropylpyrazol-3-yl)formamido]ethyl]phenyl}carbamate] the “AC1.4 Human” value was 1.53 µM and the EC50 was 15.6 µM.

For `Cc1nc(C)c(C(=O)N(C)Cc2ccc(NC(=O)OCc3ccc(Cl)cc3)cc2)o1` [Compound 182, (4-chlorophenyl)methyl N-(4-{[1-(2,4-dimethyl-1,3-oxazol-5-yl)-N-methylformamido]methyl}phenyl)carbamate], the “AC1.4 Human” value was 1.54 µM and the EC50 was 11 µM.

`CC1(C)CCN1C(=O)Cc1ccc(NC(=O)OCc2ccc(Cl)cc2)cc1` [Compound 183, (4-chlorophenyl)methyl N-{4-[2-(2,2-dimethylazetidin-1-yl)-2-oxoethyl]phenyl}carbamate] was tested, and the “AC1.4 Human” value was 1.57 µM and the EC50 was 15.2 µM.

For `COC1CCN(C(=O)NCc2ccc(NC(=O)OCc3ccc(Cl)cc3)cc2)CC1` [Compound 184, (4-chlorophenyl)methyl N-{4-[(4-methoxypiperidine-1-carbonylamino)methyl]phenyl}carbamate], the “AC1.4 Human” value was 1.58 µM and the EC50 was 14.9 µM.

With `O=C(Nc1ccc(CNC(=O)c2ccc(C(F)F)nc2)cc1)OCc1ccc(Cl)cc1` [Compound 185, (4-chlorophenyl)methyl N-[4-({[6-(difluoromethyl)pyridin-3-yl]formamido}methyl)phenyl]carbamate] the “AC1.4 Human” value was 1.59 µM and the EC50 was 2.04 µM.

With `Cc1ccc(Cc2ccc(NC(=O)OCc3ccncc3)cc2)cn1` [Compound 186, pyridin-4-ylmethyl (4-((6-methylpyridin-3-yl)methyl)phenyl)carbamate] the “AC1.4 Human” value was 1.61 µM and the EC50 was 3.38 µM.

With `O=C(Nc1ccc(CNC(=O)c2cnco2)cc1)OCc1ccc(Cl)cc1` [Compound 187, (4-chlorophenyl)methyl N-{4-[(1,3-oxazol-5-ylformamido)methyl]phenyl}carbamate] the “AC1.4 Human” value was 1.62 µM and the EC50 was 11.2 µM.

With `Cc1nn(C)c(C(=O)N(C)Cc2ccc(NC(=O)OCc3ccc(Cl)cc3)cc2)c1F` [Compound 188, (4-chlorophenyl)methyl N-(4-{[1-(4-fluoro-2,5-dimethylpyrazol-3-yl)-N-methylformamido]methyl}phenyl)carbamate] the “AC1.4 Human” value was 1.62 µM and the EC50 was 6.85 µM.

For `C[C@H](NC(=O)C1(C)COC1)c1ccc(NC(=O)OCc2ccc(Cl)cc2)cc1` [Compound 189, 4-chlorobenzyl (S)-(4-(1-(3-methyloxetane-3-carboxamido)ethyl)phenyl)carbamate], the “AC1.4 Human” value was 1.64 µM and the EC50 was 18.6 µM.

With `Cc1noc(C(=O)N(C)Cc2ccc(NC(=O)OCc3ccc(Cl)cc3)cc2)c1C` [Compound 190, (4-chlorophenyl)methyl N-(4-{[1-(3,4-dimethyl-1,2-oxazol-5-yl)-N-methylformamido]methyl}phenyl)carbamate] the “AC1.4 Human” value was 1.64 µM and the EC50 was 9 µM.

With `CC(=O)N1CCN(Cc2ccc(NC(=O)OCc3ccc(Cl)cc3)cc2)CC1` [Compound 191, (4-chlorophenyl)methyl N-{4-[(4-acetylpiperazin-1-yl)methyl]phenyl}carbamate] the “AC1.4 Human” value was 1.69 µM and the EC50 was 21.9 µM.

In the case of `Cc1ncccc1C(=O)NCc1ccc(NC(=O)OCc2ccc(Cl)cc2)cc1` [Compound 192, (4-chlorophenyl)methyl N-(4-{[(2-methylpyridin-3-yl)formamido]methyl}phenyl)carbamate], the “AC1.4 Human” value is reported as 1.70 µM and the EC50 is reported as 6.45 µM.

In the case of `Cn1cc(C(=O)NCc2ccc(NC(=O)OCc3ccc(Cl)cc3)cc2)cn1` [Compound 193, (4-chlorophenyl)methyl N-(4-{[(1-methylpyrazol-4-yl)formamido]methyl}phenyl)carbamate], the “AC1.4 Human” value is reported as 1.71 µM and the EC50 is reported as 12.7 µM.

For `O=C(Nc1ccc(CC(=O)N2CCN(C3COC3)CC2)cc1)OCc1ccc(Cl)cc1` [Compound 194, (4-chlorophenyl)methyl N-(4-{2-[4-(oxetan-3-yl)piperazin-1-yl]-2-oxoethyl}phenyl)carbamate], the “AC1.4 Human” value was 1.73 µM and the EC50 was 26.7 µM.

In the case of `COc1cc(C(=O)NCc2ccc(NC(=O)OCc3ccc(Cl)cc3)cc2)cnc1C` [Compound 195, (4-chlorophenyl)methyl N-(4-{[(5-methoxy-6-methylpyridin-3-yl)formamido]methyl}phenyl)carbamate], the “AC1.4 Human” value is reported as 1.73 µM and the EC50 is reported as 8.13 µM.

`O=C(Nc1ccc(Cc2ccncc2)cc1)OCc1ccc(C(F)F)cc1` [Compound 196, 4-(difluoromethyl)benzyl (4-(pyridin-4-ylmethyl)phenyl)carbamate] was tested, and the “AC1.4 Human” value was 1.75 µM and the EC50 was 7.22 µM.

`Cc1n[nH]cc1C(=O)N(C)Cc1ccc(NC(=O)OCc2ccc(Cl)cc2)cc1` [Compound 197, (4-chlorophenyl)methyl N-(4-{[N-methyl-1-(3-methyl-1H-pyrazol-4-yl)formamido]methyl}phenyl)carbamate] was tested, and the “AC1.4 Human” value was 1.75 µM and the EC50 was 11.8 µM.

For `O=C(Nc1ccc(C2CCN(C3COC3)CC2)cc1)OCc1ccc(Cl)cc1` [Compound 198, (4-chlorophenyl)methyl N-{4-[1-(oxetan-3-yl)piperidin-4-yl]phenyl}carbamate], the “AC1.4 Human” value was 1.76 µM and the EC50 was 8.59 µM.

For `Cc1ccc(NC(=O)Cc2ccc(NC(=O)OCc3ccc(Cl)cc3)cc2)cn1` [Compound 199, (4-chlorophenyl)methyl N-(4-{[(6-methylpyridin-3-yl)carbamoyl]methyl}phenyl)carbamate], the “AC1.4 Human” value was 1.77 µM and the EC50 was 5.28 µM.

With `Cc1cc(C(=O)N[C@@H](C)c2ccc(NC(=O)OCc3ccc(Cl)cc3)cc2)on1` [Compound 200, 4-chlorobenzyl (S)-(4-(1-(3-methylisoxazole-5-carboxamido)ethyl)phenyl)carbamate] the “AC1.4 Human” value was 1.78 µM and the EC50 was 2.12 µM.

`O=C(Nc1ccc(Cc2ccncc2)cc1)OCc1cncs1` [Compound 201, thiazol-5-ylmethyl (4-(pyridin-4-ylmethyl)phenyl)carbamate] was tested, and the “AC1.4 Human” value was 1.78 µM and the EC50 was 26.4 µM.

`O=C(Nc1ccc(CC(=O)N2CCC[C@H]2CO)cc1)OCc1ccc(Cl)cc1` [Compound 202, (4-chlorophenyl)methyl N-(4-{2-[(2S)-2-(hydroxymethyl)pyrrolidin-1-yl]-2-oxoethyl}phenyl)carbamate] was tested, and the “AC1.4 Human” value was 1.82 µM and the EC50 was 24.5 µM.

`Cc1nn(C)c(C(=O)NCc2ccc(NC(=O)OCc3ccc(Cl)cc3)cc2)c1F` [Compound 203, (4-chlorophenyl)methyl N-(4-{[(4-fluoro-2,5-dimethylpyrazol-3-yl)formamido]methyl}phenyl)carbamate] was tested, and the “AC1.4 Human” value was 1.82 µM and the EC50 was 7.14 µM.

With `CN1CC(=O)NC[C@@H]1c1ccc(NC(=O)OCc2ccc(C(F)F)cc2)cc1` [Compound 204, 4-(difluoromethyl)benzyl (S)-(4-(1-methyl-5-oxopiperazin-2-yl)phenyl)carbamate] the “AC1.4 Human” value was 1.83 µM and the EC50 was 21.1 µM.

For `Cn1nccc1C(=O)NCc1ccc(NC(=O)OCc2ccc(Cl)cc2)cc1` [Compound 205, (4-chlorophenyl)methyl N-(4-{[(2-methylpyrazol-3-yl)formamido]methyl}phenyl)carbamate], the “AC1.4 Human” value was 1.84 µM and the EC50 was 10.1 µM.

With `Cc1n[nH]c(C)c1C(=O)N(C)Cc1ccc(NC(=O)OCc2ccc(Cl)cc2)cc1` [Compound 206, (4-chlorophenyl)methyl N-(4-{[1-(3,5-dimethyl-1H-pyrazol-4-yl)-N-methylformamido]methyl}phenyl)carbamate] the “AC1.4 Human” value was 1.85 µM and the EC50 was 14.7 µM.

In the case of `O=C(Nc1ccc(CNC(=O)c2ncccc2F)cc1)OCc1ccc(Cl)cc1` [Compound 207, (4-chlorophenyl)methyl N-(4-{[(3-fluoropyridin-2-yl)formamido]methyl}phenyl)carbamate], the “AC1.4 Human” value is reported as 1.85 µM and the EC50 is reported as 9.34 µM.

`CCc1cc(C(=O)NCc2ccc(NC(=O)OCc3ccc(Cl)cc3)cc2)n(C)n1` [Compound 208, (4-chlorophenyl)methyl N-(4-{[(5-ethyl-2-methylpyrazol-3-yl)formamido]methyl}phenyl)carbamate] was tested, and the “AC1.4 Human” value was 1.87 µM and the EC50 was 17.4 µM.

`Cc1ncoc1C(=O)NCc1ccc(NC(=O)OCc2ccc(Cl)cc2)cc1` [Compound 209, (4-chlorophenyl)methyl N-(4-{[(4-methyl-1,3-oxazol-5-yl)formamido]methyl}phenyl)carbamate] was tested, and the “AC1.4 Human” value was 1.88 µM and the EC50 was 21.6 µM.

In the case of `C[C@H](NC(=O)c1ccnn1C1CCC1)c1ccc(NC(=O)OCc2ccc(Cl)cc2)cc1` [Compound 210, (4-chlorophenyl)methyl N-{4-[(1S)-1-[(2-cyclobutylpyrazol-3-yl)formamido]ethyl]phenyl}carbamate], the “AC1.4 Human” value is reported as 1.91 µM and the EC50 is reported as 3.82 µM.

`Cc1nc(C)c(C(=O)NCc2ccc(NC(=O)OCc3ccc(Cl)cc3)cc2)o1` [Compound 211, (4-chlorophenyl)methyl N-(4-{[(2,4-dimethyl-1,3-oxazol-5-yl)formamido]methyl}phenyl)carbamate] was tested, and the “AC1.4 Human” value was 1.91 µM and the EC50 was 10.6 µM.

`O=C(Nc1ccc(CC(=O)N2CCC(F)CC2)cc1)OCc1ccc(Cl)cc1` [Compound 212, (4-chlorophenyl)methyl N-{4-[2-(4-fluoropiperidin-1-yl)-2-oxoethyl]phenyl}carbamate] was tested, and the “AC1.4 Human” value was 1.93 µM and the EC50 was 10.2 µM.
